Where a name gives a salt, the structure may show the parent alone. Read-outs that look alike come from different tables or passages of the source. Some results are limits rather than exact numbers.

Assay [1] addresses α1-adrenoceptors. Nature of the assay: inhibition of tritiated ligand ([7-methoxy-^3 H]prazosin) binding to α1-adrenoceptors in vitro (whole cortical tissue). More on the design: species or system rat (male Charles River CD). The conditions noted are these: rat whole cortical tissue; for Ki: 30° C., 30 minutes, > from highest concentration which displaced ≤50% of the ligand; for % displacement at 10^-6 M, α1: 30 min, 1 µM. As to the method: The supernatant was centrifuged at 30,000 g at 4° C. for 10 minutes. […] Aliquots (400 μl; equivalent to 5 mg wet weight of tissue/tube) of this suspension were added to tubes containing the ligand (50 μl; 0.1 nM) and distilled water (50 μl; total binding) or phentolamine (50 μl; 5 μM; non-specific binding) or test compound (50 μl; at a single concentration of 10^-6 M or at 10 concentrations ranging from 10^-11 -10^-3 M). The ligand was [7-methoxy-^3 H]prazosin and the mixture was incubated at 30° C. for 30 minutes before the incubation was terminated by rapid filtration.
(§1) The filters were punched out into vials, scintillation fluid added and radioactivity determined by liquid scintillation counting. The percentage displacement of specific binding of the tritiated ligand was calculated for the single concentration (10^-6 M) of test compound. Displacement curves were then produced for those compounds which displaced ≥50% of specific binding of the tritiated ligand at 10^-6 M using a range of concentrations of the compound. […] The inhibition coefficient Ki was then calculated using the formula [formula] in which [ligand] is the concentration of the tritiated ligand used and KD is the equilibrium dissociation constant for the ligand.

Assay [2] has as its target T1, α2-adrenoceptors (Rattus norvegicus, UniProt P22909).
T1 sequence (P22909 1-465): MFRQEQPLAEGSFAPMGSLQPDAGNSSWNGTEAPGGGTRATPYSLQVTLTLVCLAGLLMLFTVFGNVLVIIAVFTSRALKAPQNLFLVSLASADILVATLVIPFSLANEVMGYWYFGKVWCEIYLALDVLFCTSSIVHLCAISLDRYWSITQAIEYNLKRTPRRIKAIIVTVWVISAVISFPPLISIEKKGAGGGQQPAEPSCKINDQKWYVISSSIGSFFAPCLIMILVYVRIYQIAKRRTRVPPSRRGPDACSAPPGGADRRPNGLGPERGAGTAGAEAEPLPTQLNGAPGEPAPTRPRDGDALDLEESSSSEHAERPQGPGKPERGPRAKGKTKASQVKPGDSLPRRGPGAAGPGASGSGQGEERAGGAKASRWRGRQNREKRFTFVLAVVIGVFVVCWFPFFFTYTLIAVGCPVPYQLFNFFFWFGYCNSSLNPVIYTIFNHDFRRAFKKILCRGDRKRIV
Nature of the assay: inhibition of tritiated ligand (tritiated idazoxan) binding to α2-adrenoceptors in vitro (frontal cortical tissue). More on the design: species or system rat (male Charles River CD). The conditions noted are these: for Ki: 0° C., 75 minutes, > from highest concentration which displaced ≤50% of the ligand. As to the method:
Frontal cortical tissue from the brains of male Charles River CD rats weighing between 150-250 g were homogenised in ice-cold 0.25M sucrose (1:30 w/v) and centrifuged at 1,000 g at 4° C. for 12 minutes. The supernatant was stored on ice and the pellet was rehomogenised in 0.25M sucrose (1:15 w/v) and centrifuged at 850 g at 4° C. for 12 minutes. Combined supernatants were diluted with 5 mM Tris-HCl (pH 7.5) containing 0.5M ethylenediamine tetraacetic acid (EDTA) readjusted to pH 7.5 (at 25° C.) with 1M sodium hydroxide to 1:80 w/v, and centrifuged at 30,000 g at 4° C. for 10 minutes. The resulting pellet was resuspended in 5 mM Tris-HCl (pH 7.5) containing 5.68 mM L-ascorbic acid and 5 mM EDTA readjusted to pH 7.5 (at 25° C.) with 1M sodium hydroxide, and centrifuged at 30,000 g for 10 minutes. The final pellet was resuspended in 50 mM Tris-HCl (pH 7.5) containing 5.68 mM L-ascorbic acid and 5 mM EDTA (equivalent to 12.5 mg wet weight of tissue/ml) and used immediately in the binding assay. Aliquots (400 μl; equivalent to 5 mg wet weight of tissue/tube) of this suspension were added to tubes containing the ligand (50 μl; 1 nM) and distilled water (50 μl; total binding) or phentolamine (50 μl; 5 μM; non-specificbinding) or test compound (50 μl; at a single concentration of 10^-6 M or at 10 concentrations ranging from 10^-11 -10^-3 M). The ligand was tritiated idazoxan ((1,4-[6,7(n)-^3 H]benzodioxan-2-yl)-2-imidazoline hydrochloride) and the mixture was incubated at 0° C. for 75 minutes before the incubation was terminated by rapid filtration.
as §1, with “The filters were washed with ice-cold Tris-HCl buffer and dried. The filters” for “The filters”

In assay [3] the target is D2 dopamine receptors (Rattus norvegicus, UniProt P61169). The experiment in a line: biochemical. It is filed as binding, rat (male Charles River CD). The conditions noted are these: rat striatal tissue, tritiated (S)-sulpiride, 4° C., 40 minutes.
Chain of D2 dopamine receptors (P61169 whole entry): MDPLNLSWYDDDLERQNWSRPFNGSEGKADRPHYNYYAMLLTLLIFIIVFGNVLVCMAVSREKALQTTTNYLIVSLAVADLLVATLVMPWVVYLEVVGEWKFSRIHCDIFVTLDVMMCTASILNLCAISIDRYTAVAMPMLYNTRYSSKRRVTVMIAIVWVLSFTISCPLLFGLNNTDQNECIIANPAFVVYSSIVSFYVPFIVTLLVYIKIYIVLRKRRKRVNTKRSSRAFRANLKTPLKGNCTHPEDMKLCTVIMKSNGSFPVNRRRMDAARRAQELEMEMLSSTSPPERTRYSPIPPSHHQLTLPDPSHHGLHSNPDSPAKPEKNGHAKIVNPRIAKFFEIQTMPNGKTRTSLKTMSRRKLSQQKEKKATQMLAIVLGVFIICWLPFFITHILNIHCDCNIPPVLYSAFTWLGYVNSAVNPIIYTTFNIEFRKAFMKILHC
Assay [4] has as its target T2, 5-HT1A receptors (Rattus norvegicus, UniProt P19327).
T2 sequence (P19327 1-422): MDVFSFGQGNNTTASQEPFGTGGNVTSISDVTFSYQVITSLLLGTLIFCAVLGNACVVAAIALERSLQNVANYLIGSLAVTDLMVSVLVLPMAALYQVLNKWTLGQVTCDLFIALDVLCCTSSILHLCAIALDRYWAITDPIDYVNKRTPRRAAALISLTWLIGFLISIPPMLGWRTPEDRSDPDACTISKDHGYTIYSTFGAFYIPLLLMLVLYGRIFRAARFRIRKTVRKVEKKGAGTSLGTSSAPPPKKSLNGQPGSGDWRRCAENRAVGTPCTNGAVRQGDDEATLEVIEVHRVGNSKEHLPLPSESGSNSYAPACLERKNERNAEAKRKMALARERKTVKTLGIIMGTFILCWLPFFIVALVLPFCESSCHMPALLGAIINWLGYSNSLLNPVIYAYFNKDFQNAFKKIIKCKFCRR
Nature of the assay: biochemical. Type of assay: binding, rat (male Charles River CD). The conditions noted are these: for Ki: 25° C., 30 minutes. As to the method: The pellet was rehomogenised in the same buffer, incubated at 37° C. for 10 minutes and centrifuged at 30,000 g at 4° C. for 10 minutes. […] Aliquots (400 μl; equivalent to 2.5 mg wet weight of tissue/tube) of this suspension were added to tubes containing the ligand (50 μl; 2 nM) and distilled water (50 μl; total binding) or 5-HT (50 μl; 10 µM; non-specific binding) or test compound (50 μl; at a single concentration of 10^-6 M or at 10 concentrations ranging from 10^-11 -10^-3 M). The ligand was [^3 H]8-hydroxy-2-(dipropylamino)tetralin([^3 H]8-OH-DPAT) and the mixture was incubated at 25° C. for 30 minutes before the incubation was terminated by rapid filtration.
as §1

The mark [5] stands for this setting: rat frontal cortical tissue, tritiated idazoxan.
Where [6] appears, read: rat hippocampal tissue, [^3 H]8-OH-DPAT.
[7] abbreviates: 10^-6 M, rat frontal cortical tissue, tritiated idazoxan, read-out: % displacement at 10^-6 M, α2.
Setting [8] is: 10^-6 M, rat hippocampal tissue, [^3 H]8-OH-DPAT, read-out: % displacement at 10^-6 M, 5-HT1A.
Where [9] appears, read: read-out: % displacement at 10^-6 M, α2, 10^-6 M, rat frontal cortical tissue, tritiated idazoxan.
[10] abbreviates: read-out: % displacement at 10^-6 M, 5-HT1A, 10^-6 M, rat hippocampal tissue, [^3 H]8-OH-DPAT.

Consider `Oc1cccc2c1CC(CNCC1CCN(c3ncccn3)CC1)CC2` (centres unmarked) [Example 10, 7-{N-[1-(pyrimidin-2-yl)piperid-4-ylmethyl}-aminomethyl)-5,6,7,8-tetrahydronaphth-1-ol dihydrobromide], for which the Ki in assay [1] was 339 nM; in assay [2] (setting [5]), > 500 nM; in assay [3] it was 310 nM; in assay [4] (setting [6]), 7.7 nM.

For the molecule “N-(7-chloro-1,4-benzodioxan-2-ylmethyl)-1-[1-(2-methoxyphenyl) piperid-4-yl]methylamine and N-(6-chloro-1,4-benzodioxan-2-ylmethyl)-1-[1-(2-methoxyphenyl) piperid-4-yl]methylamine hydrochloride hydrate [Example 26]”, the Ki in assay [1] was > 500 nM; in assay [2] (setting [5]), > 500 nM; in assay [3], 82.5 nM. Further, in assay [4] (10^-6 M, rat hippocampal tissue, [^3 H]8-OH-DPAT), the “% displacement at 10^-6 M, 5-HT1A” value is 88%.

Regarding `c1ccc(N2CCC(CNCC3COc4ccccc4O3)CC2)nc1` (single isomer, unassigned; (+)) [Example 20, (+)-N-(1,4-benzodioxan-2-ylmethyl)-1-[1-pyrid-2-yl)piperid-4-yl]methylamine dihydrochloride], the “% displacement at 10^-6 M, α1” value in assay [1] came out at 94%. Moreover, the inhibition at 1 µM in assay [2] (setting [7]) is 91%; in assay [4] (setting [8]), 82%.

With `COc1cccc2c1OC(CNCC1CCN(c3cccc4c3OCC4)CC1)CO2.Cl` (centres unmarked) [Example 25, 1-[1-(2,3-dihydrobenzo[b]furan-7-yl)piperid-4-yl]-N-(8-methoxy-1,4-benzodioxan-2-ylmethyl) methylamine hydrochloride], the “% displacement at 10^-6 M, α1” value in assay [1] came out at 99%. In addition, the results for the inhibition at 1 µM in assay [2] (setting [9]) and in assay [4] (setting [10]) were 96% and 101%, respectively. Besides, the Ki in assay [3] was determined as 20.9 nM.

For `Cl.Cl.c1ccc(N2CCC(CNCC3COc4ccccc4O3)CC2)nc1` (single isomer, unassigned; (-)) [Example 19, (-)-N-(1,4-benzodioxan-2-ylmethyl)-1-[1-(pyrid-2-yl)piperid-4-yl]methylamine dihydrochloride], the “% displacement at 10^-6 M, α1” value in assay [1] was found to be 98%. In addition, the inhibition at 1 µM in assay [2] (setting [9]) came out at 96%; in assay [4] (setting [10]), 98%.

With `Cl.Cl.c1ccc2c(c1)OCC(CNCC1CCN(c3cccc4c3OCCO4)CC1)O2` (centres unmarked) [Example 13, N-(1,4-benzodioxan-2-ylmethyl)-1-[1-(1,4-benzodioxan-5-yl)piperid-4-yl]methylamine dihydrochloride], the “% displacement at 10^-6 M, α1” value in assay [1] was found to be 93%. Further, the inhibition at 1 µM in assay [2] (setting [9]) stood at 66%; in assay [4] (setting [10]), 100%.

Regarding `COc1ccccc1NCC1CCN(CC2COc3ccccc3O2)CC1.O=C(O)C(=O)O` (centres unmarked) [Example 15, 1-[1-(1,4-benzodioxan-2-ylmethyl)piperid-4-yl]-N-(2-methoxyphenyl)methylamine mono-oxalate], the “% displacement at 10^-6 M, α1” value in assay [1] is 94%. Further, the inhibition at 1 µM in assay [2] (setting [9]) amounted to 94%; in assay [4] (setting [10]), 97%.

With `COc1ccccc1N1CCC(CNC[C@H]2COc3ccccc3O2)CC1` [Example 7, (S)-(-)-N-(1,4-benzodioxan-2-ylmethyl)-1-[1-(2-methoxyphenyl)-piperid-4-yl]methylamine], the “% displacement at 10^-6 M, α1” value in assay [1] worked out at 94%. Besides, the inhibition at 1 µM amounted to 72% in assay [2] (setting [7]) and 96% in assay [4] (setting [8]).

`Cl.Cl.c1ccc(N2CCC(CNCC3COc4ccccc4O3)CC2)cc1` (centres unmarked) [Example 12, N-(1,4-benzodioxan-2-ylmethyl)-1-(1-phenylpiperid-4-yl)methylamine dihydrochloride]: in assay [1], the “% displacement at 10^-6 M, α1” value was found to be 89%. The inhibition at 1 µM in assay [2] (setting [9]) was determined as 66%; in assay [4] (setting [10]) it was 97%.

In the case of `COc1ccccc1N1CCC(CNCC2COc3cccc(O)c3O2)CC1` (centres unmarked) [Example 28, N-(8-hydroxy-1,4-benzodioxan-2-ylmethyl) -1-[1-(2-methoxyphenyl)piperid-4-yl]methylamine], the Ki in assay [1] and in assay [2] (setting [5]) was > 500 nM throughout. For the same molecule, the inhibition at 1 µM in assay [4] (setting [8]) is 94%.

Consider `COc1cccc(N2CCC(CNCC3COc4ccccc4O3)CC2)c1` (centres unmarked) [Example 18, N-(1,4-benzodioxan-2-ylmethyl)-1-[1-(3-methoxyphenyl)piperid-4-yl]methylamine hydrochloride], for which the values for the Ki in assay [2] (setting [5]) and in assay [4] (setting [6]) were 242 nM and 7 nM, respectively.

With `COc1ccccc1N1CCC(CNC[C@@H]2COc3ccccc3O2)CC1` [Example 14, (R)-(+)-N-(1,4-benzodioxan-2-ylmethyl)-1-[1-(2-methoxyphenyl)piperid-4-yl]methylamine], the “% displacement at 10^-6 M, α1” value in assay [1] stood at 57%. The Ki in assay [2] (setting [5]) is > 500 nM. Besides, the inhibition at 1 µM in assay [4] (setting [8]) came to 87%.

`COc1ccc(N2CCC(CNCC3COc4ccccc4O3)CC2)cc1.Cl.Cl` (centres unmarked) [Example 16, N-(1,4-benzodioxan-2-ylmethyl)-1-[1-(4-methoxyphenyl)piperid-4-yl]methylamine dihydrochloride]: in assay [1], the “% displacement at 10^-6 M, α1” value is recorded as 94%. In addition, the inhibition at 1 µM in assay [2] (setting [9]) came out at 64%; in assay [4] (setting [10]), 98%.

As usually defined, the Ki is a dissociation constant, usually derived from enzyme kinetics or from competition with a known ligand. A low value points to higher affinity.

These data come from patent US5767116A, “Bicyclic aromatic compounds as therapeutic agents” (Knoll Atkiengesellschaft, priority 1993, dated 1998).
